The values below come from patent publication US20140243302A1, “BRIDGED BICYCLIC COMPOUNDS FOR THE TREATMENT OF BACTERIAL INFECTIONS” (priority 2011, published 2014).

The experiment deals with Staphylococcus aureus Smith. The experiment is described as follows: MIC assay, modified agar dilution (CLSI), S. aureus Smith. In kind it is cell-based. Particulars: agar dilution, 35° C., 16-20 hr, lowest concentration that completely inhibited growth; for MIC: Staphylococcus aureus, read-out: S_aureus_Smith_WT_MIC. Put shortly:
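Strains were spotted at about 1×10^4 CFU onto compound-containing Mueller Hinton agar (two-fold series, 128-0.001 μg/mL), horse blood 5% added for pneumococcus and enterococcus. MIC read after 16-20 hr at 35 °C, following a modified CLSI agar dilution method.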
In general terms: In agar dilution, organisms are placed on agar that contains the substance at set levels.

The structures appear in SMILES notation. Converted amounts (≈) assume the structure as drawn.

On to `COc1ccc2ncc(=O)n(CC(O)C34CCC(NCc5ccc6c(n5)NC(=O)CO6)(CC3)CO4)c2n1.Cl` (single isomer, unassigned) [Example 51a, 6-(((1-(1-Hydroxy-2-(6-methoxy-3-oxopyrido[2,3-b]pyrazin-4(3H)-yl)ethyl)-2-oxabicyclo[2.2.2]octan-4-yl)amino)methyl)-2H-pyrido[3,2-b][1,4]oxazin-3(4H)-one Hydrochloride], for which the S_aureus_Smith_WT_MIC (Hydrochloride) was found to be 0.0310 µg/mL.
With `COc1ccc2ncc(Cl)c(CCC34CCC(NCc5ccc6c(n5)NC(=O)CO6)(CC3)CO4)c2n1.Cl` [Example 16, 6-((1-(2-(3-Chloro-6-methoxy-1,5-naphthyridin-4-yl)ethyl)-2-oxabicyclo[2.2.2]octan-4-ylamino)methyl)-2H-pyrido[3,2-b][1,4]oxazin-3(4H)-one Hydrochloride], the MIC turned out to be 0.016 µg/mL.
On the same count and under the same terms, next, `COc1ccc2ncc(F)c(CCC34CCC(NCc5ccc6cc[nH]c6n5)(CC3)CO4)c2n1` [Example 80, N-((1H-Pyrrolo[2,3-b]pyridin-6-yl)methyl)-1-(2-(3-fluoro-6-methoxy-1,5-naphthyridin-4-yl)ethyl)-2-oxabicyclo[2.2.2]octan-4-amine]: 0.063 µg/mL (≈ 0.136 µM); `Cc1ccc2ccc(OCCC34CCC(NCc5ccc6c(n5)NC(=O)CO6)(CC3)CO4)nc2n1` [Example 113, 6-((1-(2-(7-Methyl-1,8-naphthyridin-2-yloxy)ethyl)-2-oxabicyclo[2.2.2]octan-4-ylamino)methyl)-2H-pyrido[3,2-b][1,4]oxazin-3(4H)-one]: 16 µg/mL (≈ 33.6 µM); `COc1ccc2ncc(F)c(CCC34CCC(NCc5cc6ccc(F)cc6n(C)c5=O)(CC3)CO4)c2n1` [Example 105, 7-Fluoro-3-((1-(2-(3-fluoro-6-methoxy-1,5-naphthyridin-4-yl)ethyl)-2-oxabicyclo[2.2.2]octan-4-ylamino)methyl)-1-methylquinolin-2(1H)-one]: 2 µg/mL (≈ 3.84 µM).
Still for that read-out and setting: next, `COc1ccc2ncc(F)c(CC(O)C34CCC(NCc5cc6ccccc6n(C)c5=O)(CC3)CO4)c2n1` (single isomer, unassigned) [Example 133, 3-((1-(2-(3-Fluoro-6-methoxy-1,5-naphthyridin-4-yl)-1-hydroxyethyl)-2-oxabicyclo[2.2.2]octan-4-ylamino)methyl)-1-methylquinolin-2(1H)-one]: 1 µg/mL (≈ 1.93 µM); `COc1ccc2ncc(Cl)c(CCC34CCC(NCc5ccc6c(n5)NC(=O)CO6)(CC3)CC4)c2n1.Cl` [Example 5, 6-((4-(2-(3-Chloro-6-methoxy-1,5-naphthyridin-4-yl)ethyl)bicyclo[2.2.2]octan-1-ylamino)methyl)-2H-pyrido[3,2-b][1,4]oxazin-3(4H)-one Hydrochloride]: 0.031 µg/mL.
In the case of `COc1cnc2ccc(=O)n(CC(O)C34CCC(NCc5ccc6c(n5)NC(=O)CO6)(CC3)CO4)c2c1` (single isomer, unassigned) [Example 54a, 6-(((1-(1-Hydroxy-2-(7-methoxy-2-oxo-1,5-naphthyridin-1(2H)-yl)ethyl)-2-oxabicyclo[2.2.2]octan-4-yl)amino)methyl)-2H-pyrido[3,2-b][1,4]oxazin-3(4H)-one], the S_aureus_Smith_WT_MIC amounted to 0.250 µg/mL.
For the compound `COc1ccc2ncc(F)c(CCC34CCC(NCc5cc6cccnc6n(C)c5=O)(CC3)CO4)c2n1.Cl` [Example 183, 3-((1-(2-(3-Fluoro-6-methoxy-1,5-naphthyridin-4-yl)ethyl)-2-oxabicyclo[2.2.2]octan-4-ylamino)methyl)-1-methyl-1,8-naphthyridin-2(1H)-one Hydrochloride], the MIC worked out at 1 µg/mL.
Still for that read-out and setting: under `COc1ccc2ncc(F)c(CCC34CCC(NCc5ncc6c(n5)NC(=O)CO6)(CC3)CO4)c2n1` [Example 142, 2-((1-(2-(3-Fluoro-6-methoxy-1,5-naphthyridin-4-yl)ethyl)-2-oxabicyclo[2.2.2]octan-4-ylamino)methyl)-6H-pyrimido[5,4-b][1,4]oxazin-7(8H)-one] stands 0.031 µg/mL (≈ 0.0627 µM); under `COc1ccc2ncc(F)c(CCC34CCC(NCc5csc(-c6ccccn6)n5)(CC3)CO4)c2n1` [Example 75, 1-(2-(3-Fluoro-6-methoxy-1,5-naphthyridin-4-yl)ethyl)-N-((2-(pyridin-2-yl)thiazol-4-yl)methyl)-2-oxabicyclo[2.2.2]octan-4-amine], 4 µg/mL (≈ 7.91 µM).
The same measure, in the same setting: under `N#Cc1ccc2ncc(F)c(CCC34CCC(NCc5ccc6c(n5)NC(=O)CO6)(CC3)CO4)c2n1` [Example 31, 7-Fluoro-8-(2-(4-((3-oxo-3,4-dihydro-2H-pyrido[3,2-b][1,4]oxazin-6-yl)methylamino)-2-oxabicyclo[2.2.2]octan-1-yl)ethyl)-1,5-naphthyridine-2-carbonitrile] stands 0.063 µg/mL (≈ 0.129 µM).
For `COc1ccc2ncc(F)c(CC(O)C34CCC(NCc5cc6c(cn5)OCC(=O)N6)(CC3)CO4)c2n1` (single isomer, unassigned) [Example 134, 7-((1-(2-(3-Fluoro-6-methoxy-1,5-naphthyridin-4-yl)-1-hydroxyethyl)-2-oxabicyclo[2.2.2]octan-4-ylamino)methyl)-1H-pyrido[3,4-b][1,4]oxazin-2(3H)-one], the MIC was 0.063 µg/mL (≈ 0.124 µM).
Same read-out and setting: next, `COc1cc2ncc(=O)n(CCC34CCC(NCc5ccc6c(n5)NC(=O)CO6)(CC3)CO4)c2cc1OC` [Example 115, 6-((1-(2-(6,7-Dimethoxy-2-oxoquinoxalin-1(2H)-yl)ethyl)-2-oxabicyclo[2.2.2]octan-4-ylamino)methyl)-2H-pyrido[3,2-b][1,4]oxazin-3(4H)-one]: 0.5 µg/mL (≈ 0.959 µM); `CCc1c(CNC23CCC(CCc4c(F)cnc5ccc(OC)nc45)(CC2)OC3)nc2c(c1C)OCC(=O)N2.Cl` [Example 198, N-((7-Ethyl-8-methyl-3-oxo-3,4-dihydro-2H-pyrido[3,2-b][1,4]oxazin-6-yl)methyl)-1-(2-(3-fluoro-6-methoxy-1,5-naphthyridin-4-yl)ethyl)-2-oxabicyclo[2.2.2]octan-4-aminium chloride]: 2 µg/mL; `COc1ccc2ncc(F)c(CCC34CCC(NCc5ncc6c(n5)OCCO6)(CC3)CO4)c2n1` [Example 144, N-((6,7-Dihydro-[1,4]dioxino[2,3-d]pyrimidin-2-yl)methyl)-1-(2-(3-fluoro-6-methoxy-1,5-naphthyridin-4-yl)ethyl)-2-oxabicyclo[2.2.2]octan-4-amine]: 0.125 µg/mL (≈ 0.26 µM).
For the compound `COc1ccc2ncc(F)c(CCC34CCC(NCc5cnc(N6CCOCC6)nc5)(CC3)CO4)c2n1` [Example 65, 1-(2-(3-Fluoro-6-methoxy-1,5-naphthyridin-4-yl)ethyl)-N-((2-morpholinopyrimidin-5-yl)methyl)-2-oxabicyclo[2.2.2]octan-4-amine], the MIC was found to be 2 µg/mL (≈ 3.93 µM).
On the same count and under the same terms, next, `COc1ccc2ncc(F)c(CCC34CCC(NCc5cc6ccccc6n(C)c5=O)(CC3)CO4)c2n1` [Example 79, 3-((1-(2-(3-Fluoro-6-methoxy-1,5-naphthyridin-4-yl)ethyl)-2-oxabicyclo[2.2.2]octan-4-ylamino)methyl)-1-methylquinolin-2(1H)-one]: 0.5 µg/mL (≈ 0.995 µM).
With `COc1ccc2ncc(F)c(CCC34CCC(NCc5c(OC)c6ccccc6n(C)c5=O)(CC3)CO4)c2n1` [Example 103, 3-((1-(2-(3-Fluoro-6-methoxy-1,5-naphthyridin-4-yl)ethyl)-2-oxabicyclo[2.2.2]octan-4-ylamino)methyl)-4-methoxy-1-methylquinolin-2(1H)-one], the MIC was determined as 4 µg/mL (≈ 7.51 µM).
Same read-out and setting: under `COc1ccc2ncc(F)c(CCC34CCC(NCc5ccc6c(n5)OCCN6)(CC3)CO4)c2n1` [Example 207, 6-(((1-(2-(3-Fluoro-6-methoxy-1,5-naphthyridin-4-yl)ethyl)-2-oxabicyclo[2.2.2]octan-4-yl)ammonio)methyl)-2,3-dihydro-1H-pyrido[2,3-b][1,4]oxazin-1-ium chloride] stands 0.5 µg/mL.
As to `COc1ccc2ncc(F)c(CC(O)C34CCC(NCc5ccc6c(n5)NC(=O)CO6)(CC3)CO4)c2n1.Cl` (single isomer, unassigned) [Example 20b, 6-((1-(2-(3-Fluoro-6-methoxy-1,5-naphthyridin-4-yl)-1-hydroxyethyl)-2-oxabicyclo[2.2.2]octan-4-ylamino)methyl)-2H-pyrido[3,2-b][1,4]oxazin-3(4H)-one Hydrochloride], the S_aureus_Smith_WT_MIC amounted to 0.0630 µg/mL.
Turning to `COC(=O)N(Cc1ccc2c(n1)NC(=O)CO2)C12CCC(CCc3c(F)cnc4ccc(OC)nc34)(CC1)OC2` [Example 168, Methyl {1-[2-(3-Fluoro-6-methoxy-1,5-naphthyridin-4-yl)ethyl]-2-oxabicyclo[2.2.2]oct-4-yl}[(3-oxo-3,4-dihydro-2H-pyrido[3,2-b][1,4]oxazin-6-yl)methyl]carbamate], the MIC is 16 µg/mL (≈ 29 µM).
On the same count and under the same terms, under `CC(O)(CC12CCC(NCc3ccc4c(n3)NC(=O)CO4)(CC1)CO2)c1c(F)cnc2ccc(OCCO)nc12` (stereo not shown) [Example 209, 1-(2-(3-Fluoro-6-(2-hydroxyethoxy)-1,5-naphthyridin-4-yl)-2-hydroxypropyl)-N-((3-oxo-3,4-dihydro-2H-pyrido[3,2-b][1,4]oxazin-6-yl)methyl)-2-oxabicyclo[2.2.2]octan-4-aminium chloride] stands 8 µg/mL; under `COc1ccc2ncc(F)c(CC(O)C34CCC(NCc5ccc6c(n5)NC(=O)CS6)(CC3)CO4)c2n1` (stereo not shown) [Example 156, 6-((1-(2-(3-Fluoro-6-methoxy-1,5-naphthyridin-4-yl)-1-hydroxyethyl)-2-oxabicyclo[2.2.2]octan-4-ylamino)methyl)-2H-pyrido[3,2-b][1,4]thiazin-3(4H)-one], 0.063 µg/mL (≈ 0.12 µM); under `COc1ccc2ncc(F)c(CC(OC)C34CCC(NCc5ccc6c(n5)NC(=O)CO6)(CC3)CO4)c2n1.Cl` (stereo not shown) [Example 22, 6-((1-(2-(3-Fluoro-6-methoxy-1,5-naphthyridin-4-yl)-1-methoxyethyl)-2-oxabicyclo[2.2.2]octan-4-ylamino)methyl)-2H-pyrido[3,2-b][1,4]oxazin-3(4H)-one Hydrochloride], 0.25 µg/mL.
